Results as given in US11207299B2, “Biphenyl sulfonamide compounds for the treatment of type IV collagen diseases” (Travere Therapeutics, Inc., priority 2018, dated 2021).
Entries after “also recorded” stand apart in the source; their conditions may differ. Marks after values point to notes of the source that are not given here.

Columns and labels:
[1] = system: autosomal Alport mice (COL4A3^−/−); experiment: Late intervention study in Alport mice (treated from 5-7 weeks of age); assay type: in vivo, mouse
Excerpt: (§1) Vehicle or sparsentan was given daily by oral gavage to autosomal Alport mice (COL4A3^−/−) on the 129/Sv background (male and female) in five separate studies: a pilot study, an early intervention study (treated from 3-7 weeks of age), a late intervention study (treated from 5-7 weeks of age after the onset of glomerular (GM) changes), a lifespan study, and a hearing study (FIG. 1). The early intervention, late intervention, lifespan, and hearing studies also included mice treated with a comparator, losartan, which was given orally at 3-4 weeks of age in the early intervention study, in drinking water at 4-7 weeks of age in the early intervention study, and in drinking water at 5-7 weeks in the late intervention study.
(§2) Efficacy renal endpoints included blood urea nitrogen (BUN), proteinuria (urine protein to creatinine ratio, or UP/C), glomerulosclerosis, tubulointerstitial fibrosis, leucocyte infiltration, and glomerular basement morphology (GBM) using transmission electron microscopy (TEM). Endpoints in the inner ear included auditory brain stem response (ABR) threshold as a measure of noise-induced hearing loss, strial capillary basement membrane thickness, and inner ear pathology by TEM.
In the late intervention study, wild-type or Alport mice (8 mice per group) were dosed for 14 days according to the same methods used in the early intervention study but beginning at 5 weeks of age, i.e., dosed with vehicle, 120 mg/kg of sparsentan, or 10 mg/kg losartan starting at 5 weeks of age for 14 days. In this study, untreated Alport mice at 5 weeks of age were also used as baseline controls.
(§3) For the pilot, early intervention, late intervention, and lifespan studies, spot urine was sampled pre-study and weekly during treatment and analyzed for protein (UP) and creatinine (C) to determine proteinuria (UP/C). At the end of each study the animals were euthanized, blood samples were taken, BUN was measured from serum, and kidneys were harvested for structural and immuno-fluorescent measurements. Glomerulosclerosis was assessed by immunofluorescence (IF) using an antibody to fibronectin (FN). Visual counting of the number of sclerotic glomeruli as a proportion of the total number of glomeruli per slide was used to calculate the percentage of sclerotic glomeruli. Sections were co-stained with an anti-CD45 antibody to indicate leucocyte infiltration. Tubulointerstitial fibrosis was determined by IF of kidney sections using an antibody to collagen 1 (COL1). Tubulointerstitial fibrosis (TIF) scoring was conducted by visual assessment of the COL1 positive area as a percentage of the total cortical area and was performed blinded. The fibrosis scoring (“Fibrosis Score”) was categorized according to visual judgment of percentage of total cortical area, as: 0=<5%, 1=5-10%, 2=10-25%, 3=25-50%, 4=50-75%, or 5=75-100%. Ultrastructural changes in GBM and podocyte morphology were observed using transmission electron microscopy (TEM).
For a baseline comparison for late intervention, glomerulosclerosis and fibrosis were determined in kidney samples taken from 5-week-old untreated Alport mice.

[2] = system: autosomal Alport mice (COL4A3^−/−); experiment: Lifespan study in Alport mice; assay type: in vivo, mouse; settings: dosing as in early intervention study, continued until 10% loss of peak body weight; P<0.05
Excerpt: as §1
In the lifespan study, Alport mice (n=10) were dosed using the same methodology as in the early intervention study, except that dosing was continued until mice had lost 10% of their peak body weight, after which they were euthanized.
For the pilot, early intervention, late intervention, and lifespan studies, spot urine was sampled pre-study and weekly during treatment and analyzed for protein (UP) and creatinine (C) to determine proteinuria (UP/C). At the end of each study the animals were euthanized, blood samples were taken, BUN was measured from serum, and kidneys were harvested for structural and immuno-fluorescent measurements. Glomerulosclerosis was assessed by immunofluorescence (IF) using an antibody to fibronectin (FN). Visual counting of the number of sclerotic glomeruli as a proportion of the total number of glomeruli per slide was used to calculate the percentage of sclerotic glomeruli. Sections were co-stained with an anti-CD45 antibody to indicate leucocyte infiltration. Tubulointerstitial fibrosis was determined by IF of kidney sections using an antibody to collagen 1 (COL1). Tubulointerstitial fibrosis (TIF) scoring was conducted by visual assessment of the COL1 positive area as a percentage of the total cortical area and was performed blinded. […]

[3] = system: autosomal Alport mice (COL4A3^−/−); experiment: Hearing study in Alport mice (ABR, noise exposure, strial capillary basement membrane TEM); assay type: in vivo, mouse
Excerpt: as §1, §2
For the hearing study, wild-type or Alport mice were treated according to daily from 3-8.5 weeks of age by oral gavage with vehicle (0.5% methylcellulose 4000 cps/0.25% Tween® 80 in distilled water) or 120 mg/kg sparsentan or losartan at 20 mg/kg by oral gavage from 3-4 weeks of age (during weaning) and 10 mg/kg in drinking water from 4-7 weeks of age (n=5). The progression of Alport disease was assessed at 7 weeks of age by the amount of proteinuria (via urinalysis reagent strips—data not shown). Strial capillary basement membrane (SCBM) width was analyzed by transmission electron microscopy (TEM), and accumulation of extracellular matrix (ECM) in SCBM was determined by immunofluorescence (IF) microscopy using an antibody to laminin α2. Hearing ability and sensitivity to noise were assessed between 7 and 8 weeks of age by Auditory Brainstem Response (ABR), pre-noise exposure. A subset of each treatment group was then exposed to a metabolic noise stress for 10 hours. Mice receiving the noise treatment were randomly selected for overstimulation with a 106 dB sound pressure level (SPL), narrow band noise (8-16 kHz) for 10 hours, usually 10 PM to 8 AM. The noise exposure was conducted in a sound-isolation booth. A speaker was suspended from the ceiling. Wire cages with individual compartments were located midway between the floor and speaker. Mice were hydrated prior to placement in the cage and were provided free access to food. The noise exposure occurred at 8 weeks of age. The amount of hearing loss caused by the metabolic noise exposure was determined 5 days post-exposure.

[4] = system: autosomal Alport mice (COL4A3^−/−); experiment: Early intervention study in Alport mice (treated from 3-7 weeks of age); assay type: in vivo, mouse
Excerpt: as §1, §2
In the early intervention study, wild-type and Alport mice were dosed daily by oral gavage with vehicle or sparsentan at 120 mg/kg from 3 to 7 weeks of age (7-8 mice per group), or with losartan at 20 mg/kg by oral gavage from 3-4 weeks of age (during weaning) and 10 mg/kg in drinking water from 4-7 weeks of age.
as §3

[5] = system: laminin α2 in stria of Alport mice; experiment: Immunofluorescence of laminin α2 in stria of Alport mice; assay type: in vivo, mouse; settings: losartan-treated Alport mice (10 mg/kg), early intervention study
Description: In the pilot study, designed to determine an optimal efficacious dose of sparsentan, Alport mice (3-4 per group) were dosed with vehicle (0.5% methylcellulose 4000 cps/0.25% Tween® 80 in distilled water) or sparsentan at 60 mg/kg or 200 mg/kg from 3 to 7 weeks of age for 28 days. Although 200 mg/kg sparsentan was efficacious in the pilot study, BUN levels were higher than those of Alport mice dosed with 60 mg/kg sparsentan (Table 1; FIG. 2A; FIG. 2B). This observation led to the selection of a 120 mg/kg dose of sparsentan to take forward into the early intervention study. During the pilot study, blood pressure (BP) was measured weekly using the CODA2 tail cuff system. […]
For the hearing study, wild-type or Alport mice were treated according to daily from 3-8.5 weeks of age by oral gavage with vehicle (0.5% methylcellulose 4000 cps/0.25% Tween® 80 in distilled water) or 120 mg/kg sparsentan or losartan at 20 mg/kg by oral gavage from 3-4 weeks of age (during weaning) and 10 mg/kg in drinking water from 4-7 weeks of age (n=5). The progression of Alport disease was assessed at 7 weeks of age by the amount of proteinuria (via urinalysis reagent strips—data not shown). […] Hearing ability and sensitivity to noise were assessed between 7 and 8 weeks of age by Auditory Brainstem Response (ABR), pre-noise exposure. […]

[6] = system: murine models of Alport syndrome; settings: cited from earlier work; for Glomerulosclerosis and interstitial fibrosis in murine models of Alport syndrome: literature (Dufek et al. 2016; Gross et al. 2003)
[7] = Alport mice late intervention, losartan 10 mg/kg, mean ± SD
[8] = Alport mice, losartan 20/10 mg/kg, at 7 wk of age, mean ± SD

CCCCc1nc(Cl)c(CO)n1Cc1ccc(-c2ccccc2-c2nnn[nH]2)cc1 [losartan, Losartan, reference compound]
UP/C ([1]; Alport mice late intervention, losartan 10 mg/kg for 14 days from 5 wk of age, mean ± SD, n = 8): 18.1 ± 4.6 mg/mg | BUN [1, 7]: 15.5 ± 3.4 mg/dL | GS (% Sclerotic glomeruli) [1, 7]: 16.0 ± 11.9*^$ % | TIF ([1]; Alport mice late intervention, losartan 10 mg/kg, tubulointerstitial fibrosis score, mean ± SD): 1.0 ± 1.2 | UP/C and fibrosis vs. vehicle-treated Alport mice ([1]; losartan 10 mg/kg, late intervention): not significant | Attenuation of BUN and glomerulosclerosis vs. vehicle-treated Alport mice ([1]; losartan 10 mg/kg, late intervention, P<0.05): significant | Development of fibrosis, CD45^+ leucocyte infiltration, and glomerulosclerosis ([1]; sparsentan 120 mg/kg or losartan 10 mg/kg, 5-7 weeks of age): attenuated; also recorded: prevented | Lifespan compared to vehicle-treated Alport mice [2]: significantly longer; also recorded: significantly greater | Hearing ability before noise exposure (ABR) ([3]; 7-8-week-old mice, sparsentan 120 mg/kg or losartan 20/10 mg/kg): did not differ significantly | Increase in strial capillary basement membrane width observed in vehicle-treated Alport mice ([3]; Alport mice treated 3-8.5 weeks of age with sparsentan or losartan): prevented | mean SCBM width±SD ([3]; Alport mice, losartan 20/10 mg/kg from 3 weeks of age, TEM, n=5): 55.0±5.9 nm | Hearing loss after noise exposure vs vehicle-treated Alport mice ([3]; any frequency tested, losartan 20/10 mg/kg): no significant effect; also recorded: no significant difference | Stria vascularis pathology by TEM ([3]; treated Alport mice, FIGS. 14-23): variable pathology | UP/C ([4]; Alport mice, losartan 20/10 mg/kg from 3 wk, at 4 wk of age, mean ± SD, n = 8): 0.6 ± 1.3 mg/mg | UP/C ([4]; Alport mice, losartan 20/10 mg/kg, at 5 wk of age, mean ± SD): 6.7 ± 4.0 mg/mg | UP/C ([4]; Alport mice, losartan 20/10 mg/kg, at 6 wk of age, mean ± SD): 11.2 ± 5.7 mg/mg | BUN [4, 8]: 18.2 ± 3.5 mg/dL | Sclerotic Glomeruli (%) [4, 8]: 1.7 ± 3.3 % | UP/C [4, 8]: 11.5 ± 7.0 mg/mg | Fibrosis Score ([4]; Alport mice, losartan 20/10 mg/kg, at 7 wk, score 0=<5% to 5=75-100% COL1 area, mean ± SD): 0.0 ± 0.0 | Development of nephropathy in Alport mice ([4]; sparsentan 120 mg/kg 28 days or losartan 20 mg/kg 7 days then 10 mg/kg 21 days, from 3 weeks of age): prevented | UP/C, BUN, glomerulosclerosis, and fibrosis vs. vehicle-treated Alport mice ([4]; sparsentan 120 mg/kg or losartan 20/10 mg/kg from 3 weeks of age, P<0.05): significant attenuation | TIF or glomerulosclerosis ([4]; sparsentan- or losartan-treated Alport mice, early intervention): little to no | Accumulation of laminin α2 in stria [5]: did not appear different from vehicle-treated Alport mice

CCOC(=O)[C@H](CCc1ccccc1)N[C@@H](C)C(=O)N1[C@H](C(=O)O)C[C@@H]2CCC[C@@H]21 [ramipril]
Glomerulosclerosis and interstitial fibrosis in murine models of Alport syndrome [6]: ameliorate

Cc1cc2c(cc1CC(=O)c1sccc1S(=O)(=O)Nc1onc(C)c1Cl)OCO2 [sitaxentan]
Glomerulosclerosis and interstitial fibrosis in murine models of Alport syndrome [6]: ameliorate | Basement membrane in the cochlea of the ear in Alport mice ([6]; literature (Meehan et al. 2016)): protect
